The record followed here is paper PMC12656566, “Toxicokinetic Characterization of MDM Hydantoin via Stable Metabolite DMH: Population Modeling for Predicting Dermal Formaldehyde Formation” (Toxics, 2025).

Usually clearance stands for the volume of plasma or blood freed of the substance per unit of time. Usually AUC(0-t) stands for exposure summed from dosing to a finite time, without extrapolation to infinity.

Each structure is given as a SMILES string. Where “and” joins values, the source holds several entries; their conditions need not be identical. Equal entries are not always repeated. Where two headings read alike, the source gives them in different places.

The nature of the data set: Toxicokinetics after intravenous injection of MDMH or DMH (plasma, LC-MS/MS, non-compartmental analysis). The data set is classed as in vivo. The following applies: rats; for half-life / clearance / Vd / AUC(0-t) / C0 / AUC(0-inf): male, Sprague-Dawley, rat; for half-life / clearance / Vd: plasma; for half-life: iv; for Vd: read-out: Vz; for AUC(0-inf): read-out: AUCinfinity. How it is done: An API 4000 LC-MS/MS system (Applied Biosystems/MDS Sciex, Foster City, CA, USA) coupled with an Agilent 1100 HPLC (Agilent Technologies, Santa Clara, CA, USA) was used for determination of MDMH and DMH in rat plasma. The analytes were separated on a Synergi Fusion-RP 80 Å (150 × 2.0 mm, i.d., 4 µm;) with a Security Guard™ Cartridge AJ0-7556 (Phenomenex, Torrance, CA, USA), and the column oven temperature was maintained at 30 °C. An isocratic solvent system of distilled water and methanol (80:20, v/v) was used with a runtime of 7 min. The injection volume was 10 µL, and the flow rate was maintained at 0.2 mL/min.
For plasma sample preparation, formic acid was immediately added to blood samples upon collection to achieve a final concentration of 0.5% to prevent potential enzymatic degradation of MDMH, and all sample preparation procedures were conducted at ≤4 °C to minimize temperature-dependent decomposition of the analytes. For analysis, 50 μL of internal standard solution and 100 μL of methanol containing 0.5% formic acid (as precipitating solvent) were added to 50 μL of plasma, followed by vortex-mixing for 2 min. After centrifugation at 21,206× g for 10 min, 40 μL of supernatant was mixed with 160 μL of 0.5% formic acid in distilled water, and 10 μL was injected into the LC-MS/MS system.
All animal care and experiments were conducted to evaluate the toxicokinetics of MDMH and DMH according to the Guidelines for the Care and Use of Animal approved by the Ethics Committee for Treatment of Laboratory Animal at Daegu Catholic University (CUD-2019-020). To evaluate the toxicokinetics of MDMH and DMH in rats after intravenous injection (IV) or transdermal application (TD). Male Sprague-Dawley rats (9 weeks, body weight 260–310 g) (Hyochang Science Co., Daegu, Republic of Korea) were kept in plastic cages and fed regularly with water and feed. Rats were acclimated for a minimum of 1 week prior to the experiment under conditions keeping a 12 h light-dark cycle, a temperature of 23 ± 2 °C, and a relative humidity of 50 ± 10%. The rats were cannulated using polyethylene tubing (0.58 mm i.d., 0.96 mm o.d., Natsume, Tokyo, Japan) in the jugular vein after intraperitoneal injection at a dose of 0.9 mL/kg of Zoletil 50 (Virbac, Carros, France).
For IV injection, MDMH or DMH was dissolved in distilled water, respectively, and the dose was 50 or 10 mg/kg, respectively. Blood samples were collected via the jugular vein in the MDMH administration group at 0, 0.5, 1, 1.5, 2, 2.5, 3, 5, 10, and 15 min and 1, 2, 4, 8, 12, and 24 h (16 points/head), and in the DMH administration group at 0, 2, 5, 10, 15, 30 min and 1, 2, 4, 8, 12, and 24 h (12 points/head). Plasma samples were harvested by centrifugation of obtained blood for 10 min at 4000× g, and stored at −20 °C until analysis.
The toxicokinetic parameters were calculated by standard non-compartmental analysis using the non-linear least squares regression program Phoenix™ WinNonlin® 6.1 (Pharsight, Cary, NC, USA).
The non-compartmental toxicokinetic parameters included terminal half-life (t1/2), area under the plasma concentration versus time curve from time zero to the last observation time point (AUClast) and to infinity (AUCinfinity), volume of distribution (Vz), and systemic clearance (CL). The maximum plasma concentration (Cmax) and the time to reach Cmax (Tmax) were obtained directly from the observed data. Absolute bioavailability (F) was estimated as the ratio of the dose-normalized AUCinfinity of MDMH and DMH following TD application compared to IV injection. The fraction metabolized (Fm) was calculated as the ratio of metabolite AUC to parent AUC after correction for molecular weight differences, accounting for the stoichiometric conversion relationship:(1) Fm=AUCDMH·MWMDMH/AUCMDMH·MWDMH where MWMDMH = 158.16 g/mol and MWDMH = 128.13 g/mol. […]

Setting [1] is: DMH in plasma after IV injection of DMH 10 mg/kg, n = 5.
Setting [2] is: DMH after IV injection of DMH 10 mg/kg, n = 5.
Setting [3] is: MDMH after IV injection of MDMH 50 mg/kg, n = 5.
Setting [4] is: MDMH in plasma after IV injection of MDMH 50 mg/kg, n = 5.

For the compound `CC1(C)NC(=O)NC1=O` [DMH, 5,5-dimethylhydantoin], where the note is “DMH after direct intravenous administration of DMH”, the “duration of initial distribution phase (alpha phase)” value was “approximately 30 min”. For the same compound, under setting [1], the t1/2 amounted to 3.0212 ± 0.5513 h, the AUC(0-t) amounted to 47100 ± 29900 ng·h/mL, the C0 was determined as 26.9 ± 18.3 µg/mL and the AUC(0-inf) was 55000 ± 36800 ng·h/mL. Moreover, for the setting “10 mg/kg, DMH after IV injection of DMH 10 mg/kg, read-out: t1/2 (hour equivalent)”, the half-life was 3.02 h. Besides, the half-life (10 mg/kg, DMH in plasma after IV injection of DMH 10 mg/kg, n = 5, read-out: t1/2) was determined as 3.02 ± 0.55 h. Further, under setting [2], the clearance was 4 mL/min/kg and the Vd came out at 1 ± 0.47 L/kg.
With `CC1(C)C(=O)NC(=O)N1CO` [MDMH, 1-(Hydroxymethyl)-5,5-dimethylhydantoin], the “Fm to DMH (fraction of MDMH metabolized to DMH)” value (IV injection of MDMH 50 mg/kg, AUC ratio adjusted for molecular weight) is 97.6 ± 9.6% and 97.59 ± 9.64%. For the same compound, the “time until parent compound plasma concentrations reached below the quantification limit” value (MDMH after i.v. injection of MDMH) was at most 5 min. Further, the half-life (50 mg/kg, MDMH after IV injection of MDMH 50 mg/kg, read-out: t1/2 (hour equivalent)) is 0.007 h. Moreover, the half-life (50 mg/kg, MDMH in plasma after IV injection of MDMH 50 mg/kg, n = 5, mean ± S.D., read-out: t1/2) stood at 0.00667 ± 0.00167 h. Moreover, under setting [3], the clearance is 1570 mL/min/kg and the Vd is 0.84 ± 0.04 L/kg. For the same compound, under setting [4], the AUC(0-t) is 570 ± 190 ng·h/mL, the C0 was 77.9 ± 28.1 µg/mL and the AUC(0-inf) came to 580 ± 180 ng·h/mL.
